Where two headings read alike, the source gives them in different places.
What was measured:
TTR [1] = assay: Transthyretin (TTR) ELISA analysis of mouse serum after LNP dosing; type: in vivo; conditions: for response vs control in vivo at 0.1 mg/kg / response vs control in vivo at 0.03 mg/kg: Mus musculus, iv, read-out: Serum TTR % TSS
How it was run: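 Female CD-1 mice aged 6-10 weeks were grouped by body weight and given LNPs by lateral tail vein injection (0.2 mL per animal, about 10 mL per kilogram). Mice were bled by cardiac puncture under isoflurane into serum separator tubes. Serum was diluted 10,000-fold for the 0.1 mpk dose, and total TTR was quantified with a Mouse Prealbumin (Transthyretin) ELISA Kit following the kit directions.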

[2] = pKa measurement of unformulated amine lipid (fluorescence, method of Jayaraman et al.); type: physicochemical; conditions: 100 μM in 0.1 M phosphate buffer pH 4.5-9.0
Procedure: The pKa of each amine lipid was determined according to the method in Jayaraman, et al. (Angewandte Chemie, 2012) with the following adaptations. […] Lipid was diluted to 100 μM in 0.1 M phosphate buffer (Boston Bioproducts) where the pH ranged from 4.5-9.0. Fluorescence intensity was measured using excitation and emission wavelengths of 321 nm and 448 nm.

TTR [3] = assay: TTR editing in mouse liver by NGS after i.v. LNP delivery of Cas9 mRNA and sgRNA; type: in vivo
How it was run: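 Cas9 mRNA and chemically modified sgRNA were co-formulated in LNPs made of an ionizable amine lipid, DSPC, cholesterol and PEG-2k-DMG at a 6.0 N:P ratio. CD-1 female mice aged 6-10 weeks received tail-vein injections of 0.2 mL. Liver genomic DNA was then amplified around the target site and sequenced on an Illumina MiSeq, with editing calculated as indel-containing reads over total reads.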

[4] = RNA encapsulation efficiency of LNP (Ribogreen fluorescence assay); type: physicochemical
How it was run: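 LNP samples diluted in 1× TE buffer with 0.2% Triton X-100 (total RNA) or without it (free RNA), stained with RiboGreen for ~10 min at room temperature in the dark, read at ex 488/em 525 nm against RNA standard curves. Encapsulation efficiency = (Total RNA − Free RNA)/Total RNA.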

[5] = Example 56: 0.1 mpk i.v., 7 days post-dose, G282
[6] = Example 59: 0.1 mpk i.v., 7 days post-dose, G282 1:1
[7] = 168 h, Example 59: 0.1 mpk i.v., 7 days post-dose, G282 1:1
[8] = Example 59: 0.1 mpk i.v., CD-1 female mice, 7 days post-dose, G282 1:1
[9] = Table 16, Example 59: LNP, G282 (TTR) 1:1 w/w, N:P 6.0
[10] = Example 53: 0.1 mpk i.v., CD-1 female mice, 6 days post-dose, G282 1:1
[11] = Example 53: 0.3 mpk i.v., CD-1 female mice, 6 days post-dose, G282 1:1
[12] = Example 55: 0.1 mpk i.v., 7 days post-dose, G282 1:1

In the case of `CCCCCCCCCOC(=O)CCCCCCCN(CCO)CCCCCCCC(=O)OC(CCCCCCCC)CCCCCCCC` [Compound 18, heptadecan-9-yl 8-((2-hydroxyethyl)(8-(nonyloxy)-8-oxooctyl)amino)octanoate, reference compound], the “Serum TTR” value (TTR [1]; [5]) is reported as 415 µg/mL, the “Serum TTR (% TSS)” value (TTR [1]; [5]) is reported as 52 % TSS and the “Serum TTR” value (TTR [1]; [6]) is reported as 324 µg/mL. The “Serum TTR” value (TTR [1]; Example 61: 0.1 mpk i.v., 7 days post-dose, G282 1:1) was 615 µg/mL, the response vs control in vivo at 0.1 mg/kg (TTR [1]; [7]) was 35% and the response vs control in vivo at 0.1 mg/kg (TTR [1]; 168 h, Example 61: 0.1 mpk i.v., 7 days post-dose, G282 1:1) was 48%. For the same compound, the pKa [2] was 6.6, the Editing % (TTR [3]; Example 56: 0.1 mpk i.v., CD-1 female mice, 7 days post-dose, G282) was 33% and the “Editing Mean % Indel” value (TTR [3]; [8]) was 41.6%. The “Editing Mean % Indel” value (TTR [3]; Example 61: 0.1 mpk i.v., CD-1 female mice, 7 days post-dose, G282 1:1) was 26.8%, the “Encapsulation (%)” value ([4]; Table 12, Example 56: LNP, G282 (TTR), ratio 6.0) was 81% and the “Encapsulation (%)” value [4, 9] was 98%. The “Encapsulation (%)” value ([4]; Table 20, Example 61: LNP, G282 (TTR) 1:1 w/w, N:P 6.0) was 90%.
For `CCCCCCCCCOC(=O)CCCCCCCN(CCO)CCCCCCCC(OCCCCCCCC)OCCCCCCCC` [Compound 1, nonyl 8-((8,8-bis(octyloxy)octyl)(2-hydroxyethyl)amino octanoate], the “TSS (serum TTR % TSS)” value (TTR [1]; Example 53: 0.1 mpk i.v., 6 days post-dose, G282 1:1) was 5 % TSS, the “Serum TTR” value (TTR [1]; [10]) was 19 µg/mL and the “TSS (serum TTR % TSS)” value (TTR [1]; Example 53: 0.3 mpk i.v., 6 days post-dose, G282 1:1) was 5 % TSS. The “Serum TTR” value (TTR [1]; [11]) was 5 µg/mL, the “Serum TTR” value (TTR [1]; [12]) was 391 µg/mL and the “Serum TTR (% TSS)” value (TTR [1]; [12]) was 34 % TSS. For the same compound, the “Serum TTR” value (TTR [1]; Example 58: 0.1 mpk i.v., 6 days post-dose, G282 1:1) was 656 µg/mL, the “Serum TTR” value (TTR [1]; [6]) was 327 µg/mL and the “Serum TTR” value (TTR [1]; Example 60: 0.1 mpk i.v., 6 days post-dose, G502 1:2) was 353 µg/mL. For the same compound, the “Serum TTR” value (TTR [1]; Example 62: 0.03 mpk i.v., 7 days post-dose, G282 1:2) was 594 µg/mL, the “Serum TTR” value (TTR [1]; Example 62: 0.1 mpk i.v., 7 days post-dose, G282 1:2) was 241 µg/mL and the “Serum TTR” value (TTR [1]; Example 63: 0.03 mpk i.v., 7 days post-dose, G282 1:1) was 741.05 µg/mL. The “Serum TTR” value (TTR [1]; Example 63: 0.1 mpk i.v., 7 days post-dose, G282 1:1) was 351.76 µg/mL, the response vs control in vivo at 0.1 mg/kg (TTR [1]; 144 h, Example 58: 0.1 mpk i.v., 6 days post-dose, G282 1:1) was 66% and the response vs control in vivo at 0.1 mg/kg (TTR [1]; 144 h, Example 60: 0.1 mpk i.v., 6 days post-dose, G502 1:2) was 25%. For the same compound, the response vs control in vivo at 0.1 mg/kg (TTR [1]; [7]) was 35%, the response vs control in vivo at 0.03 mg/kg (TTR [1]; 168 h, Example 62: 0.03 mpk i.v., 7 days post-dose, G282 1:2) was 93% and the response vs control in vivo at 0.1 mg/kg (TTR [1]; 168 h, Example 62: 0.1 mpk i.v., 7 days post-dose, G282 1:2) was 38%. It also gave a response vs control in vivo at 0.03 mg/kg (TTR [1]; 168 h, Example 63: 0.03 mpk i.v., 7 days post-dose, G282 1:1) of 91.8%, a response vs control in vivo at 0.1 mg/kg (TTR [1]; 168 h, Example 63: 0.1 mpk i.v., 7 days post-dose, G282 1:1) of 43.6% and a pKa [2] of 6.3. For the same compound, the “TTR Editing (%)” value (TTR [3]; [10]) was 55.4%, the “TTR Editing (%)” value (TTR [3]; [11]) was 59.3% and the “TTR editing in the liver compared with Compound 19 formulations” value (TTR [3]; Example 53 text: 0.1 and 0.3 mpk) was “higher TTR editing in the liver than Compound 19 formulations at each dose”. For the same compound, the “editing of TTR” value (TTR [3]; Example 53 text: both the 0.1 mpk and 0.3 mpk doses) was 55-60%, the “% Editing (TTR, liver)” value (TTR [3]; Example 55: 0.1 mpk i.v., CD-1 female mice, 7 days post-dose, G282 1:1) was 43% and the “Editing Mean % Indel” value (TTR [3]; Example 58: 0.1 mpk i.v., CD-1 female mice, 6 days post-dose, G282 1:1) was 29.5%. For the same compound, the “Editing Mean % Indel” value (TTR [3]; [8]) was 41.6%, the “Editing Mean % Indel” value (TTR [3]; Example 60: 0.1 mpk i.v., CD-1 female mice, 6 days post-dose, G502 1:2) was 46.3% and the “Editing Mean % Indel” value (TTR [3]; Example 62: 0.03 mpk i.v., CD-1 female mice, 7 days post-dose, G282 1:2) was 8.9%. For the same compound, the “Editing Mean % Indel” value (TTR [3]; Example 62: 0.1 mpk i.v., CD-1 female mice, 7 days post-dose, G282 1:2) was 34.2%, the “Editing Mean % Indel” value (TTR [3]; Example 63: 0.03 mpk i.v., CD-1 female mice, 7 days post-dose, G282 1:1) was 10.86% and the “Editing Mean % Indel” value (TTR [3]; Example 63: 0.1 mpk i.v., CD-1 female mice, 7 days post-dose, G282 1:1) was 41.10%. For the same compound, the “Encapsulation (%)” value ([4]; Table 3, Example 52: LNP, Cas9 mRNA + sgRNA (G650) 1:1 w/w, N:P 6.0, Compound 19 50/9/38/3, others 50/10/38.5/1.5) was 98%, the “Encapsulation (%)” value ([4]; Table 5, Example 53: LNP with gRNA G282 (TTR), 1:1 w/w, N:P 6.0) was 97% and the “Encapsulation (%)” value ([4]; Table 5, Example 53: LNP with gRNA G650 (B2M), 1:1 w/w, N:P 6.0) was 98%. The “Encapsulation (%)” value ([4]; Table 10, Example 55: LNP, G282 (TTR) 1:1 w/w, N:P 6.0) was 97%, the “Encapsulation (%)” value ([4]; Table 14, Example 58: LNP, G282 (TTR) 1:1 w/w, N:P 6.0) was 97% and the “Encapsulation (%)” value [4, 9] was 96%. For the same compound, the “Encapsulation (%)” value ([4]; Table 18, Example 60: LNP, G502 (TTR), sgRNA:Cas9 mRNA 1:2 w/w, N:P 6.0) was 97%, the “Encapsulation (%)” value ([4]; Table 22, Example 62: LNP, G282 (TTR), sgRNA:Cas9 mRNA 1:2 w/w, N:P 6.0) was 97% and the “Encapsulation (%)” value ([4]; Table 24, Example 63: LNP, G282 (TTR) 1:1 w/w, NP 6.0) was 98%.
